Converted amounts (≈) assume the structure as drawn. Read-outs that look alike come from different tables or passages of the source.
How the values were obtained:
male cynomolgus monkeys [1] = test: Interferon-inducing activity in cynomolgus monkey (in vivo), serum interferon titer and vomition; conditions: 10 mg/kg oral
[2] = Gastrointestinal absorption in rat (drug level in blood by HPLC); format: in vivo; conditions: blood, dose 3 mg/kg oral, SD male rat
Protocol: A test compound was suspended in an aqueous solution of 0.5% carboxymethylcellulose, and the resulting suspension was orally administered to an SD male rat. Blood was sampled with the elapse of time, and the level of the drug in blood was assayed by HPLC.

IL-4 production = test: Inhibitory activity against Th2 cytokine produced from sensitized spleen cells: IL-4; format: cell-based, mouse; conditions: Mus musculus, 72 h, OVA-sensitized BALB/c spleen cells, 3 days, read-out: Inhibitory activity against IL-4 production
Protocol: (§1) A 7-week-old BALB/c mouse was immunized intraperitoneally with aluminum hydroxide gel (4 mg, 100 μl) having 10 μg of ovalbumin adsorbed thereon, and it was subjected to additional immunization with the same agent 14 days later. Seven days thereafter, spleen was taken out, and suspended in RPMI-1640 comprising inactivated fetal bovine serum (10%), 2-mercaptoethanol ([…]), penicillin G (100 U/ml), and streptomycin (100 μg/ml). Thus, a splenic cell suspension was prepared. Ovalbumin (0.5 mg/ml) and a test compound were added to a splenic cell suspension (5×10^6 cell/200 μl/well), and the resultant was cultured at 37° C. in the presence of 5% CO2 for 3 days. The cytokine level in the culture supernatant was quantified by ELISA. IFN-γ and IL-4 were assayed using a kit available from Amersham, and IL-5 was assayed using a kit available from Endogen.

IL-5 production = test: Inhibitory activity against Th2 cytokine produced from sensitized spleen cells: IL-5; format: cell-based, mouse; conditions: Mus musculus, 72 h, OVA-sensitized BALB/c spleen cells, 3 days, read-out: Inhibitory activity against IL-5 production
Protocol: as §1

Balb/c male mouse = test: Interferon-inducing activity in mouse (in vivo), serum interferon titer after oral dosing; conditions: po, 2 h
mouse spleen cell = test: cells; format: cell-based; conditions: Mus musculus, 24 h, read-out: Interferon-inducing activity: Minimum effective concentration
[3] = Solubility in citric acid/disodium phosphate buffers; conditions: citric acid/disodium phosphate buffer, thermodynamic from solid
Protocol: 5.53% citric acid (monohydrate) and 1.75% disodium phosphate (anhydrous) were mixed together to prepare buffers (pH 2.5, 5.5, 7.4). A compound was added thereto, the mixture was stirred in a vortex mixer and subjected to ultrasonication for 30 minutes. Thereafter, the resultant was stirred in a vortex mixer again and then centrifuged at 15,000 rpm for 20 minutes. The levels of the compounds in the supernatants were then quantified by HPLC.

[4] = test system: human peripheral blood mononuclear cells (PBMC); test: Interferon-inducing activity in human peripheral blood mononuclear cells (PBMC), IFN-α ELISA; format: cell-based; conditions: 24 h;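 also: IFN-α in pg/ml with a 1.25 pg/ml detection limit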
Protocol: Peripheral bloods were sampled from 5 healthy volunteers using a syringe containing heparin, and peripheral blood mononuclear cells (PBMC) were prepared by density gradient centrifugation utilizing the Lymphoprep™ (NYCOMED PHARMA AS). PBMCs were washed twice in serum-free RPMI 1640 medium and adjusted at 1×10^6 cells/ml in RPMI 1640 medium comprising 10% fetal bovine serum. The product was cultured in the presence of a test compound dissolved in dimethyl sulfoxide (final concentration: 0.1%) in an incubator in the presence of 5% CO^2 at 37° C. for 24 hours. As a control, 0.1% dimethyl sulfoxide containing no test compound was used. The culture supernatant was aseptically collected by filtration. Thereafter, the supernatant was cryopreserved at −20° C. or lower until it was subjected to the assay for IFN-inducing activity. Human IFN-α in the culture supernatant was quantified using a highly sensitive ELISA system (Amersham).

male cynomolgus monkeys [5] = conditions: po, 10 mg/kg, 4 h
[6] = test system: rat model of eosinophil leukocytic infiltration; test: Rat model of eosinophil leukocytic infiltration (OVA, bronchoalveolar lavage); format: in vivo; conditions: 0.01 mg/kg intratracheal, 2.5 hours before induction, lavage 24 hours after
Protocol: A rat was immunized intraperitoneally with 1 ml of a solution containing 1 mg of ovalbumin (OVA) and 100 mg of Al(OH)3 on day 0 and day 7. On day 14, a 1% OVA solution was sprayed for 15 minutes using a ultrasonic nebulizer to induce reactions. A test compound was administered intratracheally 2.5 hours before the induction. Bronchoalveolar lavage was performed 24 hours after the induction, and eosinocytes in the wash was stained with Hinkelman to count the number of stained cells. Sensi.−/Challe.+, CMC-Na, and Fluticasone were used as controls. FIG. 1 and the following table show the results.

For `CCCCOc1nc(N)c2nc(Br)n(Cc3ccc(Cl)nc3)c2n1` [Reference Example 2, 8-Bromo-2-butoxy-9-(6-chloro-3-pyridylmethyl)adenine], the vomition observed (male cynomolgus monkeys [1]; cynomolgus monkeys) was 4 out of 5 samples and the “interferon titer in blood serum (average±SE)” value (male cynomolgus monkeys [1]; four hours after the administration, five male cynomolgus monkeys) was 18,305±5578 U/ml.
`CCCCNc1nc(N)c2nc(O)n(Cc3ccc(OC)nc3)c2n1` [Example 19, 2-Butylamino-8-hydroxy-9-(6-methoxy-3-pyridylmethyl)adenine] gave a Cmax ([2]; read-out: Cmax) of 188 ng/mL, a Tmax ([2]; read-out: Tmax) of 4 h and an activity at 0.001 µM (IL-4 production; concentration 1 nM) of 32%. For the same compound, the activity at 0.01 µM (IL-4 production; concentration 10 nM) was under 1%, the activity at 0.1 µM (IL-4 production; concentration 100 nM) was under 1% and the activity at 0.001 µM (IL-5 production; concentration 1 nM) was 83%. The activity at 0.01 µM (IL-5 production; concentration 10 nM) was 16%, the activity at 0.1 µM (IL-5 production; concentration 100 nM) was 13% and the Interferon-inducing activity (Balb/c male mouse; 0.01 mg/kg) was 14 ± 5 U/ml. The Interferon-inducing activity (Balb/c male mouse; 0.03 mg/kg) was 199 ± 84 U/ml, the Interferon-inducing activity (Balb/c male mouse; 0.1 mg/kg) was 383 ± 122 U/ml and the Interferon-inducing activity (Balb/c male mouse; 0.3 mg/kg) was 601 ± 187 U/ml. The minimal effective concentration (mouse spleen cell) was 0.003 µM, the solubility at 30 min ([3]; pH 2.5, aqueous buffer) was 130 µg/mL (≈ 379 µM) and the solubility at 30 min ([3]; pH 5.5, aqueous buffer) was 2 µg/mL (≈ 5.82 µM). For the same compound, the solubility at 30 min ([3]; pH 7.4, aqueous buffer) was 2 µg/mL (≈ 5.82 µM), the “Interferon-inducing activity (human IFN-α in culture supernatant)” value ([4]; concentration 1 nM) was 5 ± 1 pg/mL and the “Interferon-inducing activity (human IFN-α in culture supernatant)” value ([4]; concentration 3 nM) was 12 ± 11 pg/mL. The “Interferon-inducing activity (human IFN-α in culture supernatant)” value ([4]; concentration 10 nM) was 48 ± 34 pg/mL, the “Interferon-inducing activity (human IFN-α in culture supernatant)” value ([4]; concentration 30 nM) was 60 ± 33 pg/mL and the “interferon titer in blood serum (average±SE)” value (male cynomolgus monkeys [5]) was 12,173±6619 U/ml.
For `C[C@@H]1C[C@H]2[C@@H]3C[C@H](F)C4=CC(=O)C=C[C@]4(C)[C@@]3(F)[C@@H](O)C[C@]2(C)[C@@]1(O)C(=O)SCF` [Fluticasone, reference compound], the “eosinocytes in bronchoalveolar lavage, Average” value [6] was 300.07 ×10^4 cells.
